Laboratory results published in patent US11952363B2, “Piperazine compounds for the treatment of autoimmune disease” (Hoffmann-La Roche Inc., priority 2018, dated 2024).

Molecular target: T1, human TLR8 (Homo sapiens, UniProt Q9NR97)
T1 sequence (Q9NR97 27-1041): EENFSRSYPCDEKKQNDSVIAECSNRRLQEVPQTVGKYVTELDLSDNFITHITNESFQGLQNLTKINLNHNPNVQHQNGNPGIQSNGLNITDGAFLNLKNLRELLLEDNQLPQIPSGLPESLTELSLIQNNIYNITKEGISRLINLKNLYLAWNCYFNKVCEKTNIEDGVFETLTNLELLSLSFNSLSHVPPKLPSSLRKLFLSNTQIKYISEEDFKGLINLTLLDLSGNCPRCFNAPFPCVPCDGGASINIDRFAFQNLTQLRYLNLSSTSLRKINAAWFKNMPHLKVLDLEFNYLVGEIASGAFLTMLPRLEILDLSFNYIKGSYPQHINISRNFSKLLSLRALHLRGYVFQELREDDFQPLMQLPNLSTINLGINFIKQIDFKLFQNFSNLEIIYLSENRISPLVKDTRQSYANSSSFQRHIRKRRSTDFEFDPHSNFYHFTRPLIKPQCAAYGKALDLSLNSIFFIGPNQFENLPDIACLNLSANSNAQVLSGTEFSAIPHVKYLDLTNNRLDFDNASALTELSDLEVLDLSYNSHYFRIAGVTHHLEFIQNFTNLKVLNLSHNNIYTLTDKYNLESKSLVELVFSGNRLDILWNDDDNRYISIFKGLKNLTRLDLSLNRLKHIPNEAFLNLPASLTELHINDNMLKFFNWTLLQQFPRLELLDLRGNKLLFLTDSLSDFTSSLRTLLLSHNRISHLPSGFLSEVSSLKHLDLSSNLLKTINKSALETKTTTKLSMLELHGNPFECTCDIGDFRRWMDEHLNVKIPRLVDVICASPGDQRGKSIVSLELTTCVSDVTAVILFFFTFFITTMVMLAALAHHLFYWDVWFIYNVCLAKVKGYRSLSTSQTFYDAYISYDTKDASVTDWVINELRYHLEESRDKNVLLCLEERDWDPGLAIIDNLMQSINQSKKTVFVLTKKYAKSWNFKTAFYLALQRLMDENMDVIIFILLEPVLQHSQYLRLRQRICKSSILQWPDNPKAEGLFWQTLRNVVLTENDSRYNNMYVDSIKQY
Assay: HEK293-Blue-hTLR-8 cells assay (SEAP reporter, R848 stimulation)
Format: cell-based
Settings: HEK293-Blue-hTLR8 cells, R848 ligand, 20 hrs incubation; read-out: HEK/hTLR8 IC50
Description: The following tests were carried out in order to determine the activity of the compounds of formula (I) in HEK293-Blue-hTLR-7/8/9 cells assay.
A stable HEK293-Blue-hTLR-8 cell line was purchased from InvivoGen (Cat.#: hkb-htlr8, San Diego, California, USA). These cells were originally designed for studying the stimulation of human TLR8 by monitoring the activation of NF-κB. A SEAP (secreted embryonic alkaline phosphatase) reporter gene was placed under the control of the IFN-β minimal promoter fused to five NF-κB and AP-1-binding sites. The SEAP was induced by activating NF-κB and. AP-1 via stimulating HEK-Blue hTLR8 cells with TLR8 ligands. Therefore the reporter expression was declined by TLR8 antagonist under the stimulation of a ligand, such as R848, for incubation of 20 hrs. The cell culture supernatant SEAP reporter activity was determined using QUANTI-Blue™ kit (Cat.#: rep-qb1, Invivogen, San Diego, Ca, USA) at a wavelength of 640 nm, a detection medium that tunas purple or blue in the presence of alkaline phosphatase.
HEK293-Blue-hTLR8 cells were incubated at a density of 250,000˜450,000 cells/mL in a volume of 170 μL in a 96-well plate in Dulbecco's Modified Eagle's medium (DMEM) containing 4.5 g/L glucose, 50 U/mL penicillin, […], […], 2 mM L-glutamine, 10% (v/v) heat-inactivated fetal bovine serum with addition of 20 μL test compound in a serial dilution in the presence of final DMSO at 1% and 10 μL of 60 uM R848 in above DMEM, perform incubation under 37° C. in a CO2 incubator for 20 hrs. Then 20 μL of the supernatant from each well was incubated with […] Quanti-blue substrate solution at 37° C. for 2 hrs and the absorbance was read at 620-655 nm using a spectrophotometer. The signalling pathway that TLR8 activation leads to downstream NF-κB activation has been widely accepted, and therefore similar reporter assay was modified for evaluating TLR8 antagonist.

Row | SMILES | IC50 [nM]
1 | C[C@@H]1CN(c2ccc(C#N)c3ncccc23)C[C@H](C)N1Cc1ccc(N2CCNCC2)cc1 [Example 1, 5-[(3R,5S)-3,5-Dimethyl-4-[(4-piperazin-1-ylphenyl)methyl]piperazin-1-yl]quinoline-8-carbonitrile] | 16
2 | C[C@@H]1CN(c2ccc(C#N)c3ncccc23)C[C@@H](C)N1Cc1ccc(N2CCNCC2)cc1 [Example 2] | 32
3 | C[C@@H]1CN(c2ccc(C#N)c3ncccc23)C[C@H](C)N1Cc1ccc(N2CCNCC2)nc1 [Example 3, 5-[(3R,5S)-3,5-Dimethyl-4-[(6-piperazin-1-yl-3-pyridyl)methyl]piperazin-1-yl]quinoline-8-carbonitrile] | 31
4 | C[C@@H]1CN(c2ccc(C#N)c3ncccc23)C[C@H](C)N1Cc1ncc(N2CCNCC2)cn1 [Example 4, 5-[(3S,5R)-3,5-Dimethyl-4-[(5-piperazin-1-ylpyrimidin-2-yl)methyl]piperazin-1-yl]quinoline-8-carbonitrile] | 19
5 | C[C@@H]1CN(c2ccc(C#N)c3ncccc23)C[C@H](C)N1Cc1ccc(N2CCNCC2)cn1 [Example 5, 5-[(3S,5R)-3,5-Dimethyl-4-[(5-piperazin-1-yl-2-pyridyl)methyl]piperazin-1-yl]quinoline-8-carbonitrile] | 15
6 | C[C@@H]1CN(c2ccc(C#N)c3ncccc23)C[C@H](C)N1Cc1ncc(N2CCN(C(=O)CN(C)C)CC2)cn1 [Example 6, 5-[(3S,5R)-4-[[5-[4-[2-(Dimethylamino)acetyl]piperazin-1-yl]pyrimidin-2-yl]methyl]-3,5-dimethyl-piperazin-1-yl]quinoline-8-carbonitrile] | 53
7 | C[C@@H]1CN(c2ccc(C#N)c3ncccc23)C[C@H](C)N1Cc1ccc(N2CCN(C)CC2)cn1 [Example 7, 5-[(3S,5R)-3,5-dimethyl-4-[[5-(4-methylpiperazin-1-yl)-2-pyridyl]methyl]piperazin-1-yl]quinoline-8-carbonitrile] | 19
8 | C[C@@H]1CN(c2ccc(C#N)c3ncccc23)C[C@H](C)N1Cc1ccc(N2CC3CNCC(C2)O3)cn1 [Example 8, 5-[(3S,5R)-3,5-Dimethyl-4-[[5-(9-oxa-3,7-diazabicyclo[3.3.1]nonan-3-yl)-2-pyridyl]methyl]piperazin-1-yl]quinoline-8-carbonitrile] | 36
9 | C[C@@H]1CN(c2ccc(C#N)c3ncccc23)C[C@H](C)N1Cc1ccc(N[C@@H]2CNC[C@@H]2F)cn1 [Example 9, 5-[(3R,5S)-3,5-Dimethyl-4-[[5-[[(3R,4S)-4-fluoropyrrolidin-3-yl]amino]-2-pyridyl]methyl]piperazin-1-yl]quinoline-8-carbonitrile] | 22
10 | C[C@@H]1CN(c2ccc(C#N)c3ncccc23)C[C@H](C)N1Cc1ccc(N2CCN(C(=O)C3CCCN3)CC2)cn1 (stereo partly drawn) [Example 10, 5-[(3R,5S)-3,5-Dimethyl-4-[[5-[4-(pyrrolidine-2-carbonyl)piperazin-1-yl]-2-pyridyl]methyl]piperazin-1-yl]quinoline-8-carbonitrile] | 52
11 | C[C@@H]1CN(c2ccc(C#N)c3ncccc23)C[C@H](C)N1Cc1ccc(N2CCN(C(=O)CN(C)C)CC2)cn1 [Example 11, 5-[(3S,5R)-4-[[5-[4-[2-(Dimethylamino)acetyl]piperazin-1-yl]-2-pyridyl]methyl]-3,5-dimethyl-piperazin-1-yl]quinoline-8-carbonitrile] | 35
12 | C[C@@H]1CN(c2ccc(C#N)c3ncccc23)C[C@H](C)N1Cc1ccc(N2CCNCC2CO)cc1 (stereo partly drawn) [Example 12, 5-[(3R,5S)-4-[[4-[2-(Hydroxymethyl)piperazin-1-yl]phenyl]methyl]-3,5-dimethyl-piperazin-1-yl]quinoline-8-carbonitrile] | 33
13 | C[C@@H]1CN(c2ccc(C#N)c3ncccc23)C[C@H](C)N1CC(=O)N1CCc2nc(N3CCNCC3)ccc2C1 [Example 13, 5-[(3R,5S)-3,5-Dimethyl-4-[2-oxo-2-(2-piperazin-1-yl-7,8-dihydro-5H-1,6-naphthyridin-6-yl)ethyl]piperazin-1-yl]quinoline-8-carbonitrile] | 21
14 | C[C@@H]1CN(c2ccc(C#N)c3ncccc23)C[C@H](C)N1CC(=O)N1CCc2cc(N3CCNCC3)ccc2C1 [Example 14, 5-[(3R,5S)-3,5-Dimethyl-4-[2-oxo-2-(6-piperazin-1-yl-3,4-dihyrdo-1H-isoquinolin-2-yl)ethyl]piperazin-1-yl]quinoline-8-carbonitrile] | 20
15 | C[C@@H]1CN(c2ccc(C#N)c3ncccc23)C[C@H](C)N1CC(=O)N1CCc2ccc(N3CCNCC3)cc2C1 [Example 15, 5-[(3R,5S)-3,5-dimethyl-4-[2-pxp-2-(7-piperazin-1-yl-3,4-dihydro-1H-isoquinolin-2-yl)ethyl]piperazin-1-yl]quinoline-8-carbonitrile] | 46
16 | C[C@@H]1CN(c2ccc(C#N)c3ncccc23)C[C@H](C)N1CC(=O)N1Cc2ccc(N3CCNCC3)cc2C1 [Example 16, 5-[(3R,5S)-3,5-Dimethyl-4-[2-oxo-2-(5-piperazin-1-ylisoindolin-2-yl)ethyl]piperazin-1-yl]quinoline-8-carbonitrile] | 55
17 | CC1CN(c2ccc(C#N)c3ncccc23)CCN1CC(=O)Nc1ccc(N2CCNCC2)cc1 (stereo not shown) [Example 17, 2-[4-(8-Cyano-5-quinolyl)-2-methyl-piperazin-1-yl]-N-(4-piperazin-1-ylpheny)acetamide] | 58
18 | CC1CN(c2ccc(C#N)c3ncccc23)CCN1CC(=O)Nc1ccc2c(c1)CCNC2 (stereo not shown) [Example 18, 2-[4-(8-Cyano-5-quinolyl)-2-methyl-piperazin-1yl]-N-(1,2,3,4-tetrahydroisoquinolin-6-yl)acetamide] | 40
19 | CC1CN(c2ccc(C#N)c3ncccc23)CCN1CC(=O)N1CCC(C2CCN(C)CC2)CC1 (stereo not shown) [Example 19, 5-[3-methyl-4-[2-[4-(1-methyl-4-piperidyl)-1-piperidyl]-2-oxo-ethyl]piperazin-1-yl]quinoline-8-carbonitrile] | 93
